Data as given in PMC3958746 (FEBS Open Bio, 2014).

Molecular target: core histone octamer (Homo sapiens, UniProt P0C0S8+P62805+P62807+P68431)
Assay: intrinsic histone fluorescence quenching titration
Type: binding

Q: `CC[n+]1c(-c2ccccc2)c2cc(N)ccc2c2ccc(N)cc21` [EB, ethidium bromide] was tested. Which Kd did it give?
A: 7.7 ± 0.1 µM
